biological target: T1, human liver FBPase (Homo sapiens, UniProt P09467); experiment: FBPase assay: inorganic phosphate release (malachite green); assay type: biochemical; conditions: recombinant human liver FBPase, 50 μM fructose-1,6-bisphosphate, read-out at 620 nm
T1 construct: made in house; host or cells: E. coli
T1 sequence (P09467 2-338 limits assumed): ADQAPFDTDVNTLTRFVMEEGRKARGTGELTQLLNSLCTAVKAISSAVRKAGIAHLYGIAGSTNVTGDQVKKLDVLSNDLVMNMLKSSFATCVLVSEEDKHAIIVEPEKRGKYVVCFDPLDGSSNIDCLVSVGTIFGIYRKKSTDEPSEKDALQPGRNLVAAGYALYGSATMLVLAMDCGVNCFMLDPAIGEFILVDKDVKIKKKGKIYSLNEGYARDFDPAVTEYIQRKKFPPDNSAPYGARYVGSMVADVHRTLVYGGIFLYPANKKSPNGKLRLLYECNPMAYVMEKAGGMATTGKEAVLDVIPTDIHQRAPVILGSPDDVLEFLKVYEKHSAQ
Protocol: The following tests were carried out for evaluating the inhibitory activity of the compounds of the present invention against human liver FBPase (Swissprot Data base reference P09467, entry F16P_HUMAN).
Human liver FBPase cDNA (NM_000507) was purchased from Origene Technologies, Inc, subcloned in a vector for expression in E. Coli., and sequenced. Recombinant human liver FBPase (hlFBPase) was purified according to the following protocol that uses heat denaturation similarly to that described by El-Maghrabi et. al. [El-Maghrabi, M. R. et al. “Isolation of a human liver fructose-1,6-bisphosphatase cDNA and expression of the protein in Escherichia coli.” J Biol Chem 268:9466-9472, 1993.]. Briefly, E. coli cells, transiently expressing very high levels of soluble and active human liver FBPase, were suspended in 20 mM Tris-HCl pH 7.5, 1 mM EDTA, 1 mM DTT and were lysed by French press. The soluble extract was heat denatured at 65° C. for 5 min, and insoluble, denatured proteins were removed by centrifugation. The extract was then applied to a BioRad Macro-Prep High Q column equilibrated with 20 mM Tris-HCl pH 7.5, 1 mM EDTA, 1 mM DTT and the flow-through (containing FBPase activity) was collected and applied to a BioRad Macro-Prep HS column equilibrated with 20 mM HEPES pH 7.2, 1 mM DTT. A gradient of increasing NaCl concentration was then applied to the HS column and fractions were collected. Fractions containing active FBPase were pooled and further purified by size exclusion chromatography on a Sephacryl S200 column equilibrated in 20 mM Tris-HCl pH 7.5, 150 mM NaCl, 1 mM EDTA, 1 mM DTT. Purity of the enzyme preparation was >90% as assessed by Mass spectrometry.
Recombinant human liver FBPase (hlFBPase) activity was assayed through measuring the inorganic phosphate release that results from the hydrolysis of Fructose-1,6-bisphosphate by the enzyme. As described by Baykov A. A. et al. in [Baykov A. A et al., “Malachite Green procedure for orthophosphate determination and its use in alkaline phosphatase-based enzyme immunoassays”. Anal. Biochem., 171:266-270, 1988], inorganic phosphate can be readily quantified by spectrophotometry at 620 nm after complexation with ammonium molybdate/malachite green reagent. Enzymatic reaction was carried out with modifications of the procedure described by Wright S. W. et al. [Wright S. W. et al., “Anilinoquinazoline inhibitors of Fructose-1,6-bisphosphatase bind to a novel allosteric site: synthesis, in vitro characterization, and X-ray crystallography”. J. Med. Chem. 45:3865-3877, 2002]. Specifically, the reaction was carried out in 96 well plates in a final volume of 100 μl in the presence or in the absence of allosteric inhibitors. Reaction was started adding 25 ng of hlFBPase to the reaction mixture containing 50 mM HEPES-KOH buffer pH 7.2, 2 mM MgCl2, 2 mM EDTA, 1 mM DTT, 50 μM fructose-1,6-bisphosphate and 1% DMSO. After 50 minutes incubation at room temperature, the phosphate released was allowed to form a colored complex for 10 min by adding 150 μl of ammonium molybdate/malachite green reagent containing 0.03% malachite green, 0.2% ammonium molybdate, 0.05% Triton X-100 and 0.7 M H2SO4 in water that was stirred for 30 min at room temperature and filtered through 0.2 μm filter. Under these conditions, the assay was linear with time and able to detect FBPase inhibition after spectrophotometric read-out at 620 nm.

Q: For `COc1ccc2cc(S(=O)(=O)NC(=O)Nc3ncc(Br)s3)sc2c1` [Example 9, N-[(5-Bromo-1,3-thiazol-2-yl)carbamoyl]-6-methoxy-1-benzothiophene-2-sulfonamide], which IC50 is on record?
A: Its IC50 is 88 nM.

Q: For `Cn1cc(S(=O)(=O)NC(=O)Nc2ncc(Br)s2)c2cccc(OCCO)c21` [Example 49, N-[(5-Bromo-1,3-thiazol-2-yl)carbamoyl]-7-(2-hydroxyethoxy)-1-methyl-1H-indole-3-sulfonamide], which IC50 is on record?
A: Its IC50 is 104 nM.

Q: Which IC50 does the source give for `COc1sc(NC(=O)NS(=O)(=O)c2csc(C)c2)nc1C` [Example 95, N-[(5-Methoxy-4-methyl-1,3-thiazol-2-yl)carbamoyl]-5-methylthiophene-3-sulfonamide] here?
A: The IC50 was 594 nM.

Q: How did the IC50 turn out when `CCc1sc(NC(=O)NS(=O)(=O)c2csc(C)c2)nc1C(C)C` [Example 78, N-[(5-Ethyl-4-isopropyl-1,3-thiazol-2-yl)carbamoyl]-5-methylthiophene-3-sulfonamide] was run?
A: The IC50 was 168 nM.

Q: `COC(=O)c1ccc2c(c1)c(S(=O)(=O)NC(=O)Nc1ncc(Br)s1)cn2C` [Example 25, Methyl 3-({[(5-bromo-1,3-thiazol-2-yl)carbamoyl]amino}sulfonyl)-1-methyl-1H-indole-5-carboxylate] was tested. Which IC50 did it give?
A: The IC50 was 731 nM.

Q: With `COC(=O)c1ccc2c(S(=O)(=O)NC(=O)Nc3ncc(Br)s3)cn(C)c2c1` [Example 27, Methyl 3-({[(5-bromo-1,3-thiazol-2-yl)carbamoyl]amino}sulfonyl)-1-methyl-1H-indole-6-carboxylate] as the compound, how does the IC50 read?
A: Its IC50 is 450 nM.

Q: How did the IC50 turn out when `Cn1cc(S(=O)(=O)NC(=O)Nc2ncc(Br)s2)c2cccc(Br)c21` [Example 34, 7-Bromo-N-[(5-bromo-1,3-thiazol-2-yl)carbamoyl]-1-methyl-1H-indole-3-sulfonamide] was run?
A: Its IC50 is 296 nM.

Q: Which IC50 does the source give for `COCCc1sc(S(=O)(=O)NC(=O)Nc2nc(C)c(OC)s2)cc1C` [Example 96, 5-(2-Methoxyethyl)-N-[(5-methoxy-4-methyl-1,3-thiazol-2-yl)carbamoyl]-4-methylthiophene-2-sulfonamide] here?
A: The IC50 was 637 nM.

Q: How did the IC50 turn out when `COCc1nc(NC(=O)NS(=O)(=O)c2cc(C)c(CCOC(C)=O)s2)sc1SC` [Example 87, 2-{5-[({[4-(Methoxymethyl)-5-(methylthio)-1,3-thiazol-2-yl]carbamoyl}amino)sulfonyl]-3-methyl-2-thienyl}ethyl acetate] was run?
A: The IC50 was 501 nM.

Q: Which IC50 does the source give for `COCCn1cc(S(=O)(=O)NC(=O)Nc2ncc(Br)s2)c2ccccc21` [Example 31, N-[(5-Bromo-1,3-thiazol-2-yl)carbamoyl]-1-(2-methoxyethyl)-1H-indole-3-sulfonamide] here?
A: Its IC50 is 2250 nM.

Q: How did the IC50 turn out when `O=C(Nc1ncc(Br)s1)NS(=O)(=O)c1cc2cccc(-c3ccncc3)c2s1` [Example 22, N-[(5-Bromo-1,3-thiazol-2-yl)carbamoyl]-7-pyridin-4-yl-1-benzothiophene-2-sulfonamide] was run?
A: Its IC50 is 440 nM.

Q: For `COc1sc(NC(=O)NS(=O)(=O)c2cn(C)c3c(OC)cccc23)nc1C` [Example 52, 7-Methoxy-N-[(5-methoxy-4-methyl-1,3-thiazol-2-yl)carbamoyl]-1-methyl-1H-indole-3-sulfonamide], which IC50 is on record?
A: The IC50 was 771 nM.

Q: Which IC50 does the source give for `O=C(Nc1ncc(Br)s1)NS(=O)(=O)c1csc2c(Cl)cccc12` [Example 18, N-[(5-Bromo-1,3-thiazol-2-yl)carbamoyl]-7-chloro-1-benzothiophene-3-sulfonamide] here?
A: Its IC50 is 208 nM.

Q: With `COc1ccc2cc(S(=O)(=O)NC(=O)Nc3ncc(Br)s3)sc2c1Br` [Example 15, 7-Bromo-N-[(5-bromo-1,3-thiazol-2-yl)carbamoyl]-6-methoxy-1-benzothiophene-2-sulfonamide] as the compound, how does the IC50 read?
A: The IC50 was 141 nM.

Q: Which IC50 does the source give for `Cc1cc(S(=O)(=O)NC(=O)Nc2nc(-c3ccccc3)c(C)s2)cs1` [Example 65, 5-Methyl-N-[(5-methyl-4-phenyl-1,3-thiazol-2-yl)carbamoyl]thiophene-3-sulfonamide] here?
A: Its IC50 is 300 nM.

Q: With `CCc1nc(NC(=O)NS(=O)(=O)c2cc(CCOC)c(C)s2)sc1Br` [Example 59, N-[(5-Bromo-4-ethyl-1,3-thiazol-2-yl)carbamoyl]-4-(2-methoxyethyl)-5-methylthiophene-2-sulfonamide] as the compound, how does the IC50 read?
A: The IC50 was 434 nM.

Q: Which IC50 does the source give for `COCc1nc(NC(=O)NS(=O)(=O)c2cc(C)c(CCO)s2)sc1SC` [Example 88, 5-(2-Hydroxyethyl)-N-{[4-(methoxymethyl)-5-(methylthio)-1,3-thiazol-2-yl]carbamoyl}-4-methylthiophene-2-sulfonamide] here?
A: The IC50 was 369 nM.

Q: Which IC50 does the source give for `COc1cnc(NC(=O)NS(=O)(=O)c2cc3cccc(OC)c3s2)s1` [Example 54] here?
A: The IC50 was 1280 nM.

Q: Which IC50 does the source give for `O=C(Nc1ncc(Br)s1)NS(=O)(=O)c1cc2cccc(OCc3ccccc3)c2s1` [Example 37, 7-(Benzyloxy)-N-[(5-bromo-1,3-thiazol-2-yl)carbamoyl]-1-benzothiophene-2-sulfonamide] here?
A: Its IC50 is 972 nM.

Q: For `COc1cnc(NC(=O)NS(=O)(=O)c2cn(C)c3c(OC)cccc23)s1` [Example 44, 7-Methoxy-N-[(5-methoxy-1,3-thiazol-2-yl)carbamoyl]-1-methyl-1H-indole-3-sulfonamide], which IC50 is on record?
A: Its IC50 is 1320 nM.

Q: For `COc1cccc2c(S(=O)(=O)NC(=O)Nc3ncc(Br)s3)cn(C)c12` [Example 33, N-[(5-Bromo-1,3-thiazol-2-yl)carbamoyl]-7-methoxy-1-methyl-1H-indole-3-sulfonamide], which IC50 is on record?
A: Its IC50 is 71 nM.

Q: How did the IC50 turn out when `COc1sc(NC(=O)NS(=O)(=O)c2cn(C)c3c(OCC(N)=O)cccc23)nc1C` [Example 53, 2-{[3-({[(5-Methoxy-4-methyl-1,3-thiazol-2-yl)carbamoyl]amino}sulfonyl)-1-methyl-1H-indol-7-yl]oxy}acetamide] was run?
A: The IC50 was 764 nM.

Q: How did the IC50 turn out when `CCc1sc(NC(=O)NS(=O)(=O)c2cc(C)c(CCOC(C)=O)s2)nc1C` [Example 68, 2-[5-({[(5-Ethyl-4-methyl-1,3-thiazol-2-yl)carbamoyl]amino}sulfonyl)-3-methyl-2-thienyl]ethyl acetate] was run?
A: Its IC50 is 149 nM.

Q: For `Cn1cc(S(=O)(=O)NC(=O)Nc2ncc(Br)s2)c2ccc(C#N)cc21` [Example 29, N-[(5-Bromo-1,3-thiazol-2-yl)carbamoyl]-6-cyano-1-methyl-1H-indole-3-sulfonamide], which IC50 is on record?
A: The IC50 was 740 nM.

Q: Which IC50 does the source give for `COCCOc1cccc2c(S(=O)(=O)NC(=O)Nc3ncc(Br)s3)cn(C)c12` [Example 42, N-[(5-bromo-1,3-thiazol-2-yl)carbamoyl]-7-(2-methoxyethoxy)-1-methyl-1H-indole-3-sulfonamide] here?
A: Its IC50 is 375 nM.

Q: How did the IC50 turn out when `Cc1ccc2sc(S(=O)(=O)NC(=O)Nc3ncc(Br)s3)cc2c1` [Example 1, N-[(5-Bromo-1,3-thiazol-2-yl)carbamoyl]-5-methyl-1-benzothiophene-2-sulfonamide] was run?
A: Its IC50 is 89 nM.

Q: With `CCc1nc(NC(=O)NS(=O)(=O)c2csc(C)c2)sc1CC` [Example 62, N-[(4,5-Diethyl-1,3-thiazol-2-yl)carbamoyl]-5-methylthiophene-3-sulfonamide] as the compound, how does the IC50 read?
A: Its IC50 is 214 nM.

Q: Which IC50 does the source give for `COCCOc1cccc2cc(S(=O)(=O)NC(=O)Nc3ncc(Br)s3)sc12` [Example 38, N-[(5-bromo-1,3-thiazol-2-yl)carbamoyl]-7-(2-methoxyethoxy)-1-benzothiophene-2-sulfonamide] here?
A: The IC50 was 179 nM.

Q: For `CC(=O)OCCc1sc(S(=O)(=O)NC(=O)Nc2nc(C)c(Br)s2)cc1C` [Example 64, 2-[5-({[(5-Bromo-4-methyl-1,3-thiazol-2-yl)carbamoyl]amino}sulfonyl)-3-methyl-2-thienyl]ethyl acetate], which IC50 is on record?
A: Its IC50 is 188 nM.
